Numbers after ± are expanded uncertainties.
Key:
[1] = 100 kPa, Liquid; for viscosity: Concentric cylinders viscometry; for mass density: Vibrating tube method
[2] = xn = mol fraction of the nth substance listed; details: 100 kPa, Liquid; for viscosity: Concentric cylinders viscometry; for mass density: Vibrating tube method

O=C1CCCCC1 [cyclohexanone]
[1]
Details | mass density [kg/m3] | viscosity [mPa·s]
293.15 K | 948.8 ± 20 | 2.3 ± 0.12
298.15 K | 943.1 ± 20 | 2.09 ± 0.11
303.15 K | 938.2 ± 20 | 1.91 ± 0.1
308.15 K | 933.5 ± 20 | 1.75 ± 0.09
313.15 K | 928.8 ± 20 | 1.6 ± 0.08
318.15 K | 924.4 ± 20 | 1.46 ± 0.07
323.15 K | 920.7 ± 20 | 1.34 ± 0.07

O=C1CCCCC1 [cyclohexanone] + CCCCCCCCCO
[2], x1 = 1
Details | mass density [kg/m3] | viscosity [mPa·s]
293.15 K | 948.8 ± 20 | 2.3 ± 0.12
298.15 K | 943.1 ± 20 | 2.09 ± 0.11
303.15 K | 938.2 ± 20 | 1.91 ± 0.1
308.15 K | 933.5 ± 20 | 1.75 ± 0.09
313.15 K | 928.8 ± 20 | 1.6 ± 0.08
318.15 K | 924.4 ± 20 | 1.46 ± 0.07
323.15 K | 920.7 ± 20 | 1.34 ± 0.07

O=C1CCCCC1 [cyclohexanone] + CCCCCCCO
[2], x1 = 1
Details | mass density [kg/m3] | viscosity [mPa·s]
293.15 K | 948.8 ± 20 | 2.3 ± 0.12
298.15 K | 943.1 ± 20 | 2.09 ± 0.11
303.15 K | 938.2 ± 20 | 1.91 ± 0.1
308.15 K | 933.5 ± 20 | 1.75 ± 0.09
313.15 K | 928.8 ± 20 | 1.6 ± 0.08
318.15 K | 924.4 ± 20 | 1.46 ± 0.07
323.15 K | 920.7 ± 20 | 1.34 ± 0.07

CCCCCCCCCCO [decan-1-ol]
[1]
Details | mass density [kg/m3] | viscosity [mPa·s]
293.15 K | 829.5 ± 20 | 14.42 ± 0.72
298.15 K | 826.1 ± 20 | 11.8 ± 0.59
303.15 K | 822.7 ± 20 | 9.76 ± 0.49
308.15 K | 819.3 ± 20 | 8.14 ± 0.41
313.15 K | 815.8 ± 20 | 6.84 ± 0.34
318.15 K | 812.4 ± 20 | 5.8 ± 0.29
323.15 K | 808.9 ± 20 | 4.96 ± 0.25

CCCCCCCCCCO [decan-1-ol] + O=C1CCCCC1
[2], x2 = 0
Details | mass density [kg/m3] | viscosity [mPa·s]
293.15 K | 829.5 ± 20 | 14.42 ± 0.72
298.15 K | 826.1 ± 20 | 11.8 ± 0.59
303.15 K | 822.7 ± 20 | 9.76 ± 0.49
308.15 K | 819.3 ± 20 | 8.14 ± 0.41
313.15 K | 815.8 ± 20 | 6.84 ± 0.34
318.15 K | 812.4 ± 20 | 5.8 ± 0.29
323.15 K | 808.9 ± 20 | 4.96 ± 0.25

CCCCCCCO [heptan-1-ol]
[1]
Details | mass density [kg/m3] | viscosity [mPa·s]
293.15 K | 822.2 ± 20 | 7.03 ± 0.35
298.15 K | 818.7 ± 20 | 5.92 ± 0.3
303.15 K | 815.2 ± 20 | 5.03 ± 0.25
308.15 K | 811.6 ± 20 | 4.3 ± 0.22
313.15 K | 808 ± 20 | 3.71 ± 0.19
318.15 K | 804.4 ± 20 | 3.21 ± 0.16
323.15 K | 800.7 ± 20 | 2.79 ± 0.14

CCCCCCO [hexan-1-ol]
[1]
Details | mass density [kg/m3] | viscosity [mPa·s]
293.15 K | 818.7 ± 20 | 5.37 ± 0.27
298.15 K | 815.1 ± 20 | 4.58 ± 0.23
303.15 K | 811.5 ± 20 | 3.94 ± 0.2
308.15 K | 807.9 ± 20 | 3.4 ± 0.17
313.15 K | 804.2 ± 20 | 2.95 ± 0.15
318.15 K | 800.6 ± 20 | 2.58 ± 0.13
323.15 K | 796.8 ± 20 | 2.26 ± 0.11

CCCCCCO [hexan-1-ol] + O=C1CCCCC1
[2], x2 = 0
Details | mass density [kg/m3] | viscosity [mPa·s]
293.15 K | 818.7 ± 20 | 5.37 ± 0.27
298.15 K | 815.1 ± 20 | 4.58 ± 0.23
303.15 K | 811.5 ± 20 | 3.94 ± 0.2
308.15 K | 807.9 ± 20 | 3.4 ± 0.17
313.15 K | 804.2 ± 20 | 2.95 ± 0.15
318.15 K | 800.6 ± 20 | 2.58 ± 0.13
323.15 K | 796.8 ± 20 | 2.26 ± 0.11

CCCCCCCCCO [nonan-1-ol]
[1]
Details | mass density [kg/m3] | viscosity [mPa·s]
293.15 K | 827.5 ± 20 | 11.41 ± 0.57
298.15 K | 824 ± 20 | 9.43 ± 0.47
303.15 K | 820.5 ± 20 | 7.86 ± 0.39
308.15 K | 817.1 ± 20 | 6.61 ± 0.33
313.15 K | 813.6 ± 20 | 5.6 ± 0.28
318.15 K | 810.1 ± 20 | 4.78 ± 0.24
323.15 K | 806.5 ± 20 | 4.1 ± 0.21

CCCCCCCCO [octan-1-ol]
[1]
Details | mass density [kg/m3] | viscosity [mPa·s]
293.15 K | 824.9 ± 20 | 9.13 ± 0.46
298.15 K | 821.4 ± 20 | 7.62 ± 0.38
303.15 K | 817.9 ± 20 | 6.41 ± 0.32
308.15 K | 814.4 ± 20 | 5.43 ± 0.27
313.15 K | 810.9 ± 20 | 4.63 ± 0.23
318.15 K | 807.3 ± 20 | 3.98 ± 0.2
323.15 K | 803.7 ± 20 | 3.4 ± 0.17

CCCCCCCCO [octan-1-ol] + O=C1CCCCC1
[2], x2 = 0
Details | mass density [kg/m3] | viscosity [mPa·s]
293.15 K | 824.9 ± 20 | 9.13 ± 0.46
298.15 K | 821.4 ± 20 | 7.62 ± 0.38
303.15 K | 817.9 ± 20 | 6.41 ± 0.32
308.15 K | 814.4 ± 20 | 5.43 ± 0.27
313.15 K | 810.9 ± 20 | 4.63 ± 0.23
318.15 K | 807.3 ± 20 | 3.98 ± 0.2
323.15 K | 803.7 ± 20 | 3.4 ± 0.17

CCCCCO [pentan-1-ol]
[1]
Details | mass density [kg/m3] | viscosity [mPa·s]
293.15 K | 814.5 ± 20 | 4.03 ± 0.2
298.15 K | 810.8 ± 20 | 3.49 ± 0.18
303.15 K | 807.1 ± 20 | 3.04 ± 0.15
308.15 K | 803.3 ± 20 | 2.65 ± 0.13
313.15 K | 799.6 ± 20 | 2.32 ± 0.12
318.15 K | 795.8 ± 20 | 2.05 ± 0.1
323.15 K | 792 ± 20 | 1.81 ± 0.09

CCCCCO [pentan-1-ol] + O=C1CCCCC1
[2], x2 = 0
Details | mass density [kg/m3] | viscosity [mPa·s]
293.15 K | 814.5 ± 20 | 4.03 ± 0.2
298.15 K | 810.8 ± 20 | 3.49 ± 0.18
303.15 K | 807.1 ± 20 | 3.04 ± 0.15
308.15 K | 803.3 ± 20 | 2.65 ± 0.13
313.15 K | 799.6 ± 20 | 2.32 ± 0.12
318.15 K | 795.8 ± 20 | 2.05 ± 0.1
323.15 K | 792 ± 20 | 1.81 ± 0.09
